Reference: ChEMBL document CHEMBL2407012, “Structural and biological exploration of phe(3)-phe(4)-modified endomorphin-2 peptidomimetics” (ACS Med Chem Lett, 2013)

Assays:
[1] = biological target: Delta-type opioid receptor (Homo sapiens, UniProt P41143); experiment: Displacement of [3H]DPDPE from delta opioid receptor (unknown origin) expressed in CHO cells after 90 mins by liquid scintillation counting; assay type: cell-based
Mu-type opioid receptor = Mu-type opioid receptor (Homo sapiens, UniProt P35372); experiment: Displacement of [3H]DAMGO from mu opioid receptor (unknown origin) expressed in CHO cells after 90 mins by liquid scintillation counting; assay type: cell-based
Chain of Mu-type opioid receptor (P35372 whole entry): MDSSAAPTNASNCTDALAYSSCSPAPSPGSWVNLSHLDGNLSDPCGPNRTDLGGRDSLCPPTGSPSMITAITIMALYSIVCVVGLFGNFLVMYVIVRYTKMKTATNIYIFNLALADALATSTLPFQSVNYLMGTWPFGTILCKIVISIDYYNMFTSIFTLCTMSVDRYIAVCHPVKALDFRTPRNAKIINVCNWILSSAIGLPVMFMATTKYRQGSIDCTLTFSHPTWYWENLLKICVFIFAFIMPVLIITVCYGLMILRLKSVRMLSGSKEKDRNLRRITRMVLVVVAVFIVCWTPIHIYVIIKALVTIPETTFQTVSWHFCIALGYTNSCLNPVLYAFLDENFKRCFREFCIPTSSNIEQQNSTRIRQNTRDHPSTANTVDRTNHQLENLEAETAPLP

Chain of Delta-type opioid receptor (P41143 whole entry): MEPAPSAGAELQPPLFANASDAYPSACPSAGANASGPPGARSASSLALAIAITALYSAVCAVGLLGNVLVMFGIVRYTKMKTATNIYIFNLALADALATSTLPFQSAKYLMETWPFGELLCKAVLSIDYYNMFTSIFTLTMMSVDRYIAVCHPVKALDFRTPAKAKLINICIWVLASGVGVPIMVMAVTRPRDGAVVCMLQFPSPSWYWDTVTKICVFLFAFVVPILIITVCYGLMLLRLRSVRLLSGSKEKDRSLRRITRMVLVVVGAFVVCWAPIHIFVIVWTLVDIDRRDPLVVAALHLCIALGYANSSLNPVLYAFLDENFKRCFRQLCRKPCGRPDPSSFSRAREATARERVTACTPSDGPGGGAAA

| Structure (SMILES) | Ki [1] | Ki (Mu-type opioid receptor) |
| --- | --- | --- |
| NC(=O)[C@H]1Cc2ccccc2CN(C(=O)C[C@H](Cc2ccccc2)NC(=O)[C@@H]2CCCN2C(=O)[C@@H](N)Cc2ccc(O)cc2)C1 | 187 nM | 14 nM |
| NC(=O)C[C@@H]1Cc2ccccc2CN1C(=O)C[C@H](Cc1ccccc1)NC(=O)[C@@H]1CCCN1C(=O)[C@@H](N)Cc1ccc(O)cc1 | 1650 nM | 20 nM |
| NC(=O)[C@H](CNC(=O)[C@H](CNC(=O)[C@@H]1CCCN1C(=O)[C@@H](N)Cc1ccc(O)cc1)Cc1ccccc1)Cc1ccccc1 | 922 nM | 101 nM |
| NC(=O)[C@@H]1Cc2ccccc2CN(C(=O)C[C@H](Cc2ccccc2)NC(=O)[C@@H]2CCCN2C(=O)[C@@H](N)Cc2ccc(O)cc2)C1 | 695 nM | 21 nM |
| NC(=O)[C@H](CNC(=O)C[C@H](Cc1ccccc1)NC(=O)[C@@H]1CCCN1C(=O)[C@@H](N)Cc1ccc(O)cc1)Cc1ccccc1 | 463 nM | 3.3 nM |
| NC(=O)C[C@H](Cc1ccccc1)NC(=O)C[C@H](Cc1ccccc1)NC(=O)[C@@H]1CCCN1C(=O)[C@@H](N)Cc1ccc(O)cc1 | 2800 nM | 19 nM |
| NC(=O)[C@@H](CNC(=O)C[C@H](Cc1ccccc1)NC(=O)[C@@H]1CCCN1C(=O)[C@@H](N)Cc1ccc(O)cc1)Cc1ccccc1 | 1350 nM | 5.5 nM |
